# According to patent US20130345257A1, “COMPOSITION FOR LUPUS NEPHRITIS AND METHODS OF MAKING AND USING THE SAME” (The Regents of the University of California, priority 2012, published 2013):
# Entries after “also recorded” stand apart in the source; their conditions may differ.
# What was measured:
# Type in all cases: in vivo, mouse
# [1] = system: lupus nephritis in BWF1 mice; experiment: Preventive treatment of pre-nephritic BWF1 mice (survival, proteinuria, creatinine, anti-dsDNA, renal histology, IgG/C3 deposition); conditions: for Serum/plasma IgG anti-dsDNA antibody levels / Prevention of proteinuria: preventive treatment; for Serum/plasma IgG anti-dsDNA antibody levels: LAQ 1 or 25 mg/kg; for Prevention of proteinuria: both LAQ doses (1, 25 mg/kg); for Mice with proteinuria at 32 wks. of age: water 50%, p<0.0001; for Glomerular deposition of Ig and C3: treated prior to onset of clinical nephritis, vs water group p<0.001
# Procedure: Clinical and immune cell changes were compared in groups of 10-12 BWF1 female mice in the following groups: • Group 1: Water orally 3 times a week for 24 weeks. • Group 2: Laquinimod 1 mg/kg orally 3 times a week for 24 weeks. • Group 3: Laquinimod 25 mg/kg orally 3 times a week for 24 weeks. • Group 4: Mycophenolate Mofetil 30 mg/kg orally […] for 24 weeks. • Group 5: Mycophenolate Mofetil 100 mg/kg orally […] for 24 weeks (“MMF 100”).
# Preventive Group: 11-week old (pre-nephritic) BWF1 female mice were treated orally 3 times a week with a) water; b) laquinimod at 1 mg/kg (LAQ1, low dose) or c) 25 mg/kg (LAQ25, high dose) (Teva Pharmaceutical); or 5 times a week with d) mycophenolate mofetil at 30 mg/kg (MMF30, low dose) or e) 100 mg/kg (MMF100, high dose).
# (§1) Proteinuria was evaluated weekly using Albustix (Siemens), serum creatinine using a commercial kit (Arbor Assays) and anti-dsDNA IgG antibodies by ELISA as described previously (10). See, e.g., FIGS. 1 and 2.
# (§2) Kidney specimens of BWF1 mice (37 weeks of age in the prevention group or 7 and 11 weeks after institution of early or late therapies) were embedded in OCT compound and snap frozen. 4-5 μm an sections were air-dried, fixed with cold acetone and incubated with blocking buffer (anti-CD16/CD32 (1/50), 2% normal goat or rat serum, 2% BSA).
# Immunoglobulin G and C3 complement glomerular deposition were investigated by incubation of cryosections with fluoroscein isothiocyanate (FITC)-conjugated goat anti-mouse IgG (1:50) (Sigma) or rat anti-mouse C3 (1:800) (Solulink) in blocking buffer for 2 hours at room temperature. Images were acquired using Nikon Eclipse TE2000-U microscope and MetaMorph 6.3 software (Sunnyvale, Calif.). Quantification of the area immunostained in tissue sections was made using the computer image analysis software ImageJ (rsbinfonihgov</>ij</>indexhtml). For histology, kidney sections were fixed in 10% formalin and 2 μm-paraffin sections were stained with H&E, PAS and methenamine silver (Jones) for histological analysis.
# (§3) Histological analysis of glomerular pathology was done by an investigator blinded to treatment group and included acute inflammatory features (endocapillary hypercellularity, mesangial hypercellularity, cellular necrosis, cellular crescents, and interstitial inflammation), and chronic features (global glomerulosclerosis (GS), focal segmental glomerulosclerosis (FSGS), and interstitial fibrosis or tubular atrophy (IF/TA)). The severity of each feature was graded as 0 (absent), 1 (lesions involving up to 25% of the component evaluated), 2 (lesions in 26-50% evaluated) or 3 (lesions in >50%) in each field of the microscope at 400× magnification. The weighted total score of the clinical features was based on this formula: [endocapillary hypercellularity+mesengial hypercellularity+(cellular necrosis*2)+(cellular crescents*2)+interstitial inflammation)/5]+(GS+FSGS+IFTA)/3, with maximum score 5.2. A minimum of 25 glomeruli, of at least 10 mice per group, were scored. Scores from each individual mouse were added and averaged to yield the glomerulonephritis score.
# [2] = system: leukocyte subsets present in kidney; experiment: Leukocyte subsets in kidney of treated BWF1 mice by flow cytometry; set-up: Frequency of cells ± SEM: CD11c^+CD11b− (DC) / Frequency of cells ± SEM: CD11b^+Ly6C^+Ly6G− / Frequency of cells ± SEM: CD11b^+Ly6C^+Ly6G+ / Frequency of cells ± SEM: CD4+ / Frequency of cells ± SEM: CD8+ / Frequency of cells ± SEM: CD11b^+MDSC−(Mφ) / Frequency of cells ± SEM: CD11c^+CD11b+(DC): unit not given here; conditions: for Frequency of cells ± SEM: CD4+ / Frequency of cells ± SEM: CD8+ / Frequency of cells ± SEM: CD11b^+Ly6C^+Ly6G+ / Frequency of cells ± SEM: CD11b^+Ly6C^+Ly6G− / Frequency of cells ± SEM: CD11b^+MDSC−(Mφ) / Frequency of cells ± SEM: CD11c^+CD11b+(DC) / Frequency of cells ± SEM: CD11c^+CD11b− (DC) / Frequency of cells ± SEM: CD19+: kidney, LAQ 25 mg/kg, MMF 100 mg/kg
# Procedure: Single cell suspensions of splenocytes or kidney cells were prepared using cell strainers (Fisher), followed by red blood cell lysis. Kidney lymphocytes were separated from connective tissue by centrifugation (15 minutes at 400g) in 30% Percoll (GE Healthcare). CD4^+CD25^− cells from spleen and kidney were isolated using the CD4^+CD25^+ regulatory T cell isolation kit according to manufacturer's protocol (Miltenyi). CD11b+ cells were isolated using EasySep mouse CD11b positive selection kit (StemCell Technologies), surface stained for Ly6C and Ly6G prior to sorting myeloid-derived suppressor cells (MDSC) using FACSAria II. Populations were >95% pure by FACS analysis.
# Single-cell suspensions from spleen or kidneys were stained for extracellular markers for 20 min at 4° C. in PBS/1% FBS. Intracellular staining for Foxp3 and cytokines was performed using the Foxp3 Fixation/Permeabilization kit according to the manufacturer's protocol (eBioscience). Cells were acquired on a FACS LSR II (BD) and data was analyzed using Flowjo (Tree Star).
# [3] = system: BWF1 mice with high proteinuria (PU^hi); experiment: Therapeutic treatment of BWF1 mice after clinical nephritis / high proteinuria (PU^hi); conditions: for Survival: treated after clinical nephritis / PU^hi, LAQ 25 mg/kg 3 times a week, MMF 100 mg/kg 5 times a week
# Procedure: Therapeutic Groups: a low proteinuria group)(PU^lo) consisted of mice with IgG anti-dsDNA detectable in serum and proteinuria ≦100 mg/dL, and a high proteinuria group (PU^hi) had proteinuria ≧300 mg/dL.
# as §1, §2
# as §3, with “The severity of each feature was graded as 0 (absent), 1 (lesions involving up to 25% of the component evaluated), 2 (lesions in 26-50% evaluated) or 3 (lesions in >50%) in each field of the microscope at 400× magnification.” left out
# [4] = Preventive, 25 weeks after treatment
# [5] = Therapeutic (PU^lo), 10 wks after initiation of therapy
structure (smiles),measurement,setting,value
"CCN(C(=O)c1c(O)c2c(Cl)cccc2n(C)c1=O)c1ccccc1 [LAQ, 5-chloro-N-ethyl-4-hydroxy-1-methyl-2-oxo-N-phenyl-1,2-dihydroquinoline-3-carboxamide]",Survival vs. controls,"[1]; BWF1 females treated orally for 24 weeks before disease, LAQ 1 and 25 mg/kg, MMF 100 mg/kg, p=0.028",better
same,Development of proteinuria six weeks after the treatment,"[1]; FIG. 5, treated three days of each week prior to proteinuria",did not develop proteinuria
same,"Survival, low dose treatment","[1]; LAQ 1 mg/kg 3 days a week, MMF 30 mg/kg 5 days a week, prior to anti-dsDNA and proteinuria, vs water",significantly better; also recorded: still alive at 45 weeks
same,"Chronic scarring (GS, FSGS, IFTA) in kidney","[1]; higher doses, treated before proteinuria, vs water",less
same,Onset of proteinuria beyond 32 weeks up until about 42 weeks,"[1]; low dose: LAQ 1 mg/kg 3 times a week, MMF 30 mg/kg",completely prevented onset of proteinuria
same,Serum/plasma IgG anti-dsDNA antibody levels,"[1]; MMF 100 mg/kg, vs water",suppressed; also recorded: significantly lower; also recorded: lower anti-DNA levels
same,Serum/plasma IgG anti-dsDNA antibody levels,"[1]; MMF 100 mg/kg, vs water, listed as Laquinimod",suppressed
same,Prevention of proteinuria,[1]; MMF 100 mg/kg,equivalent to MMF100 and completely prevented proteinuria and prevented the appearance of proteinuria and none
same,Prevention of proteinuria,"[1]; MMF 100 mg/kg, listed as Laquinimod",equivalent to MMF 100
same,"Kidney specimens (histology, glomerular IgG and C3 deposits)","[1]; preventive, LAQ 25 mg/kg, MMF 100 mg/kg, after more than 50% of controls developed high proteinuria",largely unremarkable
same,Rise in serum creatinine levels,"[1]; preventive, LAQ 25 mg/kg, after 18 weeks of treatment",significantly delayed; also recorded: prevented a rise in serum creatinine
same,Mice with proteinuria at 32 wks. of age,"[1]; treated before disease, LAQ 1 and 25 mg/kg, MMF 100 mg/kg",zero
same,Mice with proteinuria at 32 wks. of age,"[1]; treated before disease, LAQ 1 and 25 mg/kg, MMF 100 mg/kg, listed as Laquinimod",none
same,Mean total histologic score (renal histology),"[1]; treated before disease, MMF 100 mg/kg, water 7.8, p<0.01",1.0
same,Glomerular deposition of Ig and C3,[1],in the normal range; also recorded: significantly decreased
same,Glomerular deposition of Ig and C3,[1]; listed as laquinimod,in the normal range
same,Frequency of cells ± SEM: CD4+,[2]; [4],7.0 ± 0.5
same,Frequency of cells ± SEM: CD8+,[2]; [4],4.2 ± 0.2
same,Frequency of cells ± SEM: CD11b^+Ly6C^+Ly6G+,[2]; [4],7.9 ± 1.9
same,Frequency of cells ± SEM: CD11b^+Ly6C^+Ly6G−,[2]; [4],44.4 ± 1.5
same,Frequency of cells ± SEM: CD11b^+MDSC−(Mφ),[2]; [4],31.0 ± 1.8
same,Frequency of cells ± SEM: CD11c^+CD11b+(DC),[2]; [4],0.7 ± 0.1
same,Frequency of cells ± SEM: CD11c^+CD11b− (DC),[2]; [4],3.8 ± 0.2
same,Frequency of cells ± SEM: CD19+,[2]; [4],4.0 ± 0.5
same,Frequency of cells ± SEM: CD4+,[2]; [5],2.8 ± 0.3
same,Frequency of cells ± SEM: CD8+,[2]; [5],2.7 ± 0.2
same,Frequency of cells ± SEM: CD11b^+Ly6C^+Ly6G+,[2]; [5],13.6 ± 1.2
same,Frequency of cells ± SEM: CD11b^+Ly6C^+Ly6G−,[2]; [5],41.2 ± 0.4
same,Frequency of cells ± SEM: CD11b^+MDSC−(Mφ),[2]; [5],28.4 ± 0.9
same,Frequency of cells ± SEM: CD11c^+CD11b+(DC),[2]; [5],0.7 ± 0.1
same,Frequency of cells ± SEM: CD11c^+CD11b− (DC),[2]; [5],1.2 ± 0.1
same,Frequency of cells ± SEM: CD19+,[2]; [5],2.7 ± 0.2
same,Number of MM in the kidneys,"[2]; mouse, in vivo",suppresses numbers of monocytes/macrophages
same,Phenotype of MM isolated from kidneys,"[2]; mouse, in vivo",promoting change from M1 to M2 phenotypes
same,Number of MM in the kidneys,"[2]; mouse, in vivo, listed as laquinimod",significantly reduced
same,Rise in serum creatinine,"[3]; PU^hi arm, LAQ 25 mg/kg, MMF 100 mg/kg",suppresses
same,Animals with proteinuria reduced to levels below 300 mg/dL,"[3]; PU^hi arm, after 8 weeks of treatment, LAQ 25 mg/kg, MMF 100 mg/kg",50%
same,FSGS and IF/TA histology scores,"[3]; PU^hi arm, compared to controls",significantly lower
same,Endo-capillary hypercellularity in the kidney,"[3]; PU^hi arm, versus both control and MMF-treated mice",significantly lower
same,Established proteinuria,"[3]; mice that already developed proteinuria, vs water",significant reduction of proteinuria; also recorded: suppresses proteinuria
same,Survival,[3]; vs water,better; also recorded: significantly increased survival; also recorded: survived
same,Survival,"[3]; vs water, listed as laquinimod",better
same,Mice with proteinuria present after 3 wks. of treatment,"[3]; treated after clinical nephritis appeared (≧3+ proteinuria), water 100%, p<0.001",25%
same,Histologic evidence of inflammation in the kidneys,"[3]; treatment starting after proteinuria developed, vs water",significantly less histologic evidence of inflammation
